In patent publication US10961202B2, “Bis-benzimidazole compounds and methods of using the same” (THE SCRIPPS RESEARCH INSTITUTE, priority 2017, dated 2021):

Assays:
[1] = system: r(CUG)12-MBNL1 complex; assay: Inhibition of the r(CUG)12-MBNL1 complex measured by TR-FRET; assay type: biochemical; conditions: Table M; 80 nM RNA, 60 nM MBNL1-His6
[2] = system: MBNL1 exon 5 inclusion in DM1 myotubes; assay: Myotube splicing rescue assay (MBNL1 exon 5 inclusion); assay type: cell-based, human; conditions: 48-hour incubation

Compound: COc1cc(-c2nc3ccc(SCCCN(C)C)cc3[nH]2)c(OC)cc1-c1nc2cc(SCCCN(C)C)ccc2[nH]1 [Compound 302, 3-((2-(4-(6-((3-(dimethylamino)propyl)thio)-1H-benzo[d]imidazol-2-yl)-2,5-dimethoxyphenyl)-1H-benzo[d]imidazol-5-yl)thio)-N,N-dimethylpropan-1-amine]
- IC50 [1]: 28 µM
- MBNL1 % splicing rescue at 10 μM [2]: 32.3%

Compound: CN(C)CCCOc1cc2nc(-c3ccc(-c4nc5cc(Cl)c(OCCCN(C)C)cc5[nH]4)cc3)[nH]c2cc1Cl [Compound 304, (3-[[6-chloro-2-(4-[5-chloro-6-[3-(dimethylamino)propoxy]-1H-1,3-benzodiazol-2-yl]phenyl)-1H-1,3-benzodiazol-5-yl]oxy]propyl)dimethylamine]
- IC50 [1]: 5.8 µM
- MBNL1 % splicing rescue at 10 μM [2]: −42.3%

Compound: CN(C)CCCOc1ccc2nc(-c3ccc(-c4nc5ccc(OCCCN(C)C)cc5[nH]4)c4c3OCO4)[nH]c2c1 [Compound 305]
- IC50 [1]: 7.6 µM
- MBNL1 % splicing rescue at 10 μM [2]: 58.8%

Compound: CN(C)CCCSc1ccc2nc(-c3ccc(-c4nc5ccc(SCCCN(C)C)cc5[nH]4)c4c3OCO4)[nH]c2c1 [Compound 306]
- IC50 [1]: 12.1 µM
- MBNL1 % splicing rescue at 10 μM [2]: 11.7%

Compound: COc1cc(-c2nc3ccc(OCCCN(C)C)cc3[nH]2)c(OCc2ccccc2)cc1-c1nc2cc(OCCCN(C)C)ccc2[nH]1 [Compound 307, 3-((2-(2-(benzyloxy)-4-(5-(3-(dimethylamino)propoxy)-1H-benzo[d]imidazol-2-yl)-5-methoxyphenyl)-1H-benzo[d]imidazol-6-yl)oxy)-N,N-dimethylpropan-1-amine]
- IC50 [1]: 15.8 µM
- MBNL1 % splicing rescue at 10 μM [2]: 18.1%

Compound: COc1cc(-c2nc3ccc(OCCCN(C)C)cc3[nH]2)c(O)cc1-c1nc2cc(OCCCN(C)C)ccc2[nH]1 [Compound 308]
- IC50 [1]: 1.8 µM
- MBNL1 % splicing rescue at 10 μM [2]: −24.4%

Compound: CCOc1cc(-c2nc3cc(OCCCN(C)C)ccc3[nH]2)c(OCC)cc1-c1nc2cc(OCCCN(C)C)ccc2[nH]1 [Compound 314, (3-[[2-(4-[5-[3-(dimethylamino)propoxy]-1H-1,3-benzodiazol-2-yl]-2,5-diethoxyphenyl)-1H-1,3-benzodiazol-5-yl]oxy]propyl)dimethylamine]
- IC50 [1]: 19.8 µM
- MBNL1 % splicing rescue at 10 μM [2]: 22.5%

Compound: CN1CCC(COc2ccc3nc(-c4ccc(-c5nc6ccc(OCC7CCN(C)CC7)cc6[nH]5)c(F)c4)[nH]c3c2)CC1 [Compound 315]
- IC50 [1]: 6.1 µM
- MBNL1 % splicing rescue at 10 μM [2]: 88.4%

Compound: CN(C)CCCOc1ccc2[nH]c(-c3ccc(-c4nc5cc(OCCCN(C)C)ccc5[nH]4)c4c3OCCO4)nc2c1 [Compound 316]
- IC50 [1]: 20.7 µM
- MBNL1 % splicing rescue at 10 μM [2]: 87.1%

Compound: C#CCCCCN(C)CCNC(=O)CCCOc1ccc2[nH]c(-c3ccc(-c4nc5cc(OCCCN(C)C)ccc5[nH]4)cc3)nc2c1 [Compound 320]
- IC50 [1]: 16.7 µM
- MBNL1 % splicing rescue at 10 μM [2]: 88.2%

Compound: CN1CCN(c2ccc(-c3nc4cc(-c5ccc6[nH]c(-c7ccc(N8CCN(C)CC8)cc7)nc6c5)ccc4[nH]3)cc2)CC1 [Compound 334]
- IC50 [1]: 14.2 µM
- MBNL1 % splicing rescue at 1 μM [2]: 73.1%

Compound: CN1CCC(COc2ccc(-c3nc4cc(-c5ccc6[nH]c(-c7ccc(OCC8CCN(C)CC8)cc7)nc6c5)ccc4[nH]3)cc2)CC1 [Compound 336]
- IC50 [1]: 8.03 µM
- MBNL1 % splicing rescue at 1 μM [2]: 59.0%
- MBNL1 % splicing rescue at 10 μM [2]: 77.0%

Compound: CN1CCN(Cc2ccc(-c3nc4cc(-c5ccc6[nH]c(-c7ccc(CN8CCN(C)CC8)cc7)nc6c5)ccc4[nH]3)cc2)CC1 [Compound 337]
- IC50 [1]: 31.9 µM
- MBNL1 % splicing rescue at 1 μM [2]: 57.2%
- MBNL1 % splicing rescue at 10 μM [2]: 73.3%

Compound: CN1CCC(NC(=O)c2ccc(-c3nc4cc(-c5ccc6[nH]c(-c7ccc(C(=O)NC8CCN(C)CC8)cc7)nc6c5)ccc4[nH]3)cc2)CC1 [Compound 338]
- IC50 [1]: 4.56 µM
- MBNL1 % splicing rescue at 1 μM [2]: 7.8%
- MBNL1 % splicing rescue at 10 μM [2]: −5.3%

Compound: CN1CC[C@@H](NC(=O)c2ccc(-c3nc4cc(-c5ccc6[nH]c(-c7ccc(C(=O)N[C@@H]8CCN(C)C8)cc7)nc6c5)ccc4[nH]3)cc2)C1 [Compound 339]
- IC50 [1]: 5.96 µM
- MBNL1 % splicing rescue at 1 μM [2]: −3.2%
- MBNL1 % splicing rescue at 10 μM [2]: 1.8%

Compound: CN1CCC(CNC(=O)c2ccc(-c3nc4cc(-c5ccc6[nH]c(-c7ccc(C(=O)NCC8CCN(C)CC8)cc7)nc6c5)ccc4[nH]3)cc2)CC1 [Compound 340]
- IC50 [1]: 6.17 µM
- MBNL1 % splicing rescue at 1 μM [2]: −3.4%
- MBNL1 % splicing rescue at 10 μM [2]: −0.4%

Compound: c1cc(-c2nc3cc(-c4ccc5[nH]c(-c6ccc(OCCN7CCCC7)cc6)nc5c4)ccc3[nH]2)ccc1OCCN1CCCC1 [Compound 347]
- IC50 [1]: 13.5 µM
- MBNL1 % splicing rescue at 1 μM [2]: 78.9%
- MBNL1 % splicing rescue at 10 μM [2]: 98.1%

Compound: CN(C)CCCOc1ccc(-c2nc3cc(-c4ccc5[nH]c(-c6ccc(O)cc6)nc5c4)ccc3[nH]2)cc1 [Compound 348]
- IC50 [1]: 16.8 µM
- MBNL1 % splicing rescue at 1 μM [2]: 75.3%
- MBNL1 % splicing rescue at 10 μM [2]: 75.3%

Compound: c1cc(-c2nc3cc(-c4ccc5[nH]c(-c6ccc(OCCN7CCCCC7)cc6)nc5c4)ccc3[nH]2)ccc1OCCN1CCCCC1 [Compound 350]
- IC50 [1]: 16.9 µM
- MBNL1 % splicing rescue at 1 μM [2]: 47.2%

Compound: c1ccc(COc2ccc(-c3nc4cc(-c5ccc6[nH]c(-c7ccc(OCc8ccccn8)cc7)nc6c5)ccc4[nH]3)cc2)nc1 [Compound 352]
- IC50 [1]: 25.8 µM
- MBNL1 % splicing rescue at 1 μM [2]: 3.1%
- MBNL1 % splicing rescue at 10 μM [2]: 9.6%

Compound: CCN(CC)CCOc1ccc(-c2nc3cc(-c4ccc5[nH]c(-c6ccc(OCCN(CC)CC)cc6)nc5c4)ccc3[nH]2)cc1 [Compound 353]
- IC50 [1]: 13.3 µM
- MBNL1 % splicing rescue at 1 μM [2]: 7.5%

Compound: CN1CCC[C@H]1COc1ccc(-c2nc3cc(-c4ccc5[nH]c(-c6ccc(OC[C@@H]7CCCN7C)cc6)nc5c4)ccc3[nH]2)cc1 [Compound 356]
- IC50 [1]: 30.4 µM
- MBNL1 % splicing rescue at 1 μM [2]: 43.7%
- MBNL1 % splicing rescue at 10 μM [2]: 59.2%

Compound: CN1CCC[C@H]1COc1ccc(-c2nc3cc(-c4ccc5[nH]c(-c6ccc(O)cc6)nc5c4)ccc3[nH]2)cc1 [Compound 357]
- IC50 [1]: 15.1 µM
- MBNL1 % splicing rescue at 1 μM [2]: 1.1%
- MBNL1 % splicing rescue at 10 μM [2]: 66.0%

Compound: CN1CCCCC1COc1ccc(-c2nc3cc(-c4ccc5[nH]c(-c6ccc(O)cc6)nc5c4)ccc3[nH]2)cc1 (centres unmarked) [Compound 358]
- IC50 [1]: 19.2 µM
- MBNL1 % splicing rescue at 1 μM [2]: 12.4%
- MBNL1 % splicing rescue at 10 μM [2]: 74.6%

Compound: CN(C)CCCCCOc1ccc(-c2nc3cc(-c4ccc5[nH]c(-c6ccc(OCCCCCN(C)C)cc6)nc5c4)ccc3[nH]2)cc1 [Compound 371]
- IC50 [1]: 12.8 µM
- MBNL1 % splicing rescue at 1 μM [2]: 79.7%
- MBNL1 % splicing rescue at 10 μM [2]: 72.4%

Compound: CN(C)CCNC(=O)c1ccc(-c2nc3cc(-c4ccc5[nH]c(-c6ccc(SCCN(C)C)cc6)nc5c4)ccc3[nH]2)cc1 [Compound 384]
- IC50 [1]: 10.1 µM
- MBNL1 % splicing rescue at 10 μM [2]: 93.9%

Compound: CN(C)CCCNC(=O)c1ccc(-c2nc3cc(-c4ccc5[nH]c(-c6ccc(C(=O)NCCCN(C)C)cc6)nc5c4)ccc3[nH]2)cc1 [Compound 393]
- IC50 [1]: 7.48 µM
- MBNL1 % splicing rescue at 10 μM [2]: 17.1%

Compound: C#CCCCCN(C)CCNC(=O)c1ccc(-c2nc3cc(-c4ccc5[nH]c(-c6ccc(C(=O)NCCN(C)C)cc6)nc5c4)ccc3[nH]2)cc1 [Compound 401, N-(2-(dimethylamino)ethyl)-4-(2′-(4-((2-(hex-5-yn-1-yl(methyl)amino)ethyl)carbamoyl)phenyl)-1H,1′H-[5,5′-bibenzo[d]imidazol]-2-yl)benzamide]
- IC50 [1]: 10.6 µM
- MBNL1 % splicing rescue at 5 μM ([2]; 5 μM): −11.3%
